IC50 data for 19 molecules are collected here from patent publication US20210070748A1, “INHIBITORS OF BRUTONS TYROSINE KINASE” (Pharmacyclics LLC, priority 2015, published 2021).

Structures are written as SMILES. pIC50: −log10 of the molar value.

What all share (format): biochemical
In one assay the target is T1, BTK-WT (Homo sapiens, UniProt Q06187).
T1 construct: purified from insect cells as a full-length construct containing an N-terminal 6X-His tag; His6 (N); made in house; host or cells: insect cells (baculovirus Sf21 in Method B)
Put plainly: Btk in vitro inhibitory activity (one of Method A TR-FRET, Method B electrophoretic mobility shift, Method C radiometric filter binding). Particulars: E compounds, Table 17; read-out: IC50 BTK-WT.

The target in a further assay is T2, ITK (Homo sapiens, UniProt Q08881).
T2 sequence (Q08881 1-620): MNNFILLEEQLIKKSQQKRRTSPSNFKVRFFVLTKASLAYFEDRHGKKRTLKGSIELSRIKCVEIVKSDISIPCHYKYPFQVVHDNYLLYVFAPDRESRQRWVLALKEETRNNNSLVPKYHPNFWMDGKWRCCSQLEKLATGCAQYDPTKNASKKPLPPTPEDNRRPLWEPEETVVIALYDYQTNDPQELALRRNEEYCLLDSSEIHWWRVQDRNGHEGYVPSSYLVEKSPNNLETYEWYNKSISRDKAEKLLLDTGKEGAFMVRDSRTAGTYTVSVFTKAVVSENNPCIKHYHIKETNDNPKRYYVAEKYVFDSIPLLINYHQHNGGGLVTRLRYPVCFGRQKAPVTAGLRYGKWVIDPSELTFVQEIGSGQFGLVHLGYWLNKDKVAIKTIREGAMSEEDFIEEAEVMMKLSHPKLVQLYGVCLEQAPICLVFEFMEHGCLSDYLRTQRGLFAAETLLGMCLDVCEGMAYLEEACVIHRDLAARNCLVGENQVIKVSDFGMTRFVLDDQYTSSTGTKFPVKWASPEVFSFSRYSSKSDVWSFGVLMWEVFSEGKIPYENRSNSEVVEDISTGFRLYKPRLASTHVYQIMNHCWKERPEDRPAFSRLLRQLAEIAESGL
Put plainly: Inhibition of a panel of kinases, in vitro HotSpot kinase assay: ITK. The following applies: E compounds, Table 17. On the procedure: (§1) The degree of inhibition of a panel of kinases is determined using the in vitro HotSpot kinase assay (purified enzymes, ^33P-ATP, an appropriate substrate and 1 μM ATP).

Another assay addresses EGFR (Homo sapiens, UniProt P00533). Put plainly: Inhibition of a panel of kinases, in vitro HotSpot kinase assay: EGFR. The following applies: E compounds, Table 17. Here is the method:
as §1

In another assay the target is T3, TEC (Homo sapiens, UniProt P42680).
T3 sequence (P42680 1-631): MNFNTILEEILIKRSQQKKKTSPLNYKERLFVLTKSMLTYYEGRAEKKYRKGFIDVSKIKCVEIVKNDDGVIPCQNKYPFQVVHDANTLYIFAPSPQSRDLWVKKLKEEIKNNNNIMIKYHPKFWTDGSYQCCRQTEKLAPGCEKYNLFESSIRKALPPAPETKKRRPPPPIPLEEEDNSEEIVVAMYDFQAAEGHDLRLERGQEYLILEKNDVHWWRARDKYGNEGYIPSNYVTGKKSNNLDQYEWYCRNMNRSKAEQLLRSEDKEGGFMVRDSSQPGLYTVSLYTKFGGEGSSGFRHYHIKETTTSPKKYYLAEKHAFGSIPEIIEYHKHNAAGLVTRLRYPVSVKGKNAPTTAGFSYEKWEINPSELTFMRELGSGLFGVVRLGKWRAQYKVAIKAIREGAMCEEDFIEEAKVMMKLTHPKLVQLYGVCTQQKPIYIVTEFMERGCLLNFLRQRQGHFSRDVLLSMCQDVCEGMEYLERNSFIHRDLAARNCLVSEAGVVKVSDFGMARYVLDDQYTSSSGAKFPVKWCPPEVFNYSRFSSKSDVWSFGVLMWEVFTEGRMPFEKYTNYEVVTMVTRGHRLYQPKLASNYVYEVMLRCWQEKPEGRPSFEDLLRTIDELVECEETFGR
Put plainly: Inhibition of a panel of kinases, in vitro HotSpot kinase assay: TEC. Particulars: E compounds, Table 17. Here is the method: as §1

Chain of EGFR (P00533 25-1210): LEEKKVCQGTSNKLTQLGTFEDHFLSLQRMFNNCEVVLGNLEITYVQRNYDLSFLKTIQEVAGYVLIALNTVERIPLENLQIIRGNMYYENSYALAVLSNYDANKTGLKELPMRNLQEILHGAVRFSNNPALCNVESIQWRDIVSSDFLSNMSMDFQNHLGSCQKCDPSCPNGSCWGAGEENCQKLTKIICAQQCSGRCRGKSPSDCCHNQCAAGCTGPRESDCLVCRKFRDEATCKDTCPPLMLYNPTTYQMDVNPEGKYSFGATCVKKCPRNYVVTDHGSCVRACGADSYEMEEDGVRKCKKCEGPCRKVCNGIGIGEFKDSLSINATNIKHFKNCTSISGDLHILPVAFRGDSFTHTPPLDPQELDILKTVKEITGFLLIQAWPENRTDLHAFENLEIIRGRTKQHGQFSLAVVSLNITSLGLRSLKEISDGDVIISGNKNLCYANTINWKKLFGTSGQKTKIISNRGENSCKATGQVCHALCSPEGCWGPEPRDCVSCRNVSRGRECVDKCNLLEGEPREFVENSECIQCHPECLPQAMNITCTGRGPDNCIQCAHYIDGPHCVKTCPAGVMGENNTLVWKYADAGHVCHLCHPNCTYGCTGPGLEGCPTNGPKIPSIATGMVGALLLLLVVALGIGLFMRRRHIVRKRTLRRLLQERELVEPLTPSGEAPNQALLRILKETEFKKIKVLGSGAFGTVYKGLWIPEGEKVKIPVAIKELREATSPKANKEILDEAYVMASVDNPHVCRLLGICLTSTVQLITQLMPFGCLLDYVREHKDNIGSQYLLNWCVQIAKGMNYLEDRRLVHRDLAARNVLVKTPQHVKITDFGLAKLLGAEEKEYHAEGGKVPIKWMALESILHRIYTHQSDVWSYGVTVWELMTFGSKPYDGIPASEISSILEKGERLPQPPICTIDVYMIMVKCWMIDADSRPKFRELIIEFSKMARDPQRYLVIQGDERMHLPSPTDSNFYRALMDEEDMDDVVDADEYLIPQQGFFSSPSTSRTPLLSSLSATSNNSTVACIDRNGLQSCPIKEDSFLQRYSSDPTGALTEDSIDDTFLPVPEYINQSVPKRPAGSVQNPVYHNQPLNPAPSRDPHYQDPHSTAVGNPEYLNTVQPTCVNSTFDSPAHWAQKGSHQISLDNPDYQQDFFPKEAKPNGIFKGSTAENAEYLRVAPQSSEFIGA
T1 sequence (Q06187 whole entry): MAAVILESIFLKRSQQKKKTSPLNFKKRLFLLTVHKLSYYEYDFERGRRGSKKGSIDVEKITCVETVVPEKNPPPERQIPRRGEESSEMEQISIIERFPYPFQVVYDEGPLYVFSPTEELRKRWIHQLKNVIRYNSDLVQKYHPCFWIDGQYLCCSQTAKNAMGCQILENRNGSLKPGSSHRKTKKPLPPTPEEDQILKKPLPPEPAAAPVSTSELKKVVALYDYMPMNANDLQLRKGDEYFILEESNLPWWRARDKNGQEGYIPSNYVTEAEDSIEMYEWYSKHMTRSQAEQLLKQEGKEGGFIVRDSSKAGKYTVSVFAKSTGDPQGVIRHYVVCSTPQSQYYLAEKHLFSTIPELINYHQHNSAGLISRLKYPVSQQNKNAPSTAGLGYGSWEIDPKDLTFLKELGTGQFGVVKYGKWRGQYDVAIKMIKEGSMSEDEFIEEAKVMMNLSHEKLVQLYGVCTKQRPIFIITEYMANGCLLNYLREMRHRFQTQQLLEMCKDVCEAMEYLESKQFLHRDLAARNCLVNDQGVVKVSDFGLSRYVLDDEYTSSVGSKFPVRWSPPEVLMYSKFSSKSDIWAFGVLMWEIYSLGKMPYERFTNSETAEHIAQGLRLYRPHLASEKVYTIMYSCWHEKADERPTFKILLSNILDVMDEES

In general, pIC50 refers to the negative decadic logarithm of the IC50, by convention in mol/L. For `C=CC(=O)N1CC[C@@H](N(C)c2cnc(C(N)=O)c(Nc3ccc(-c4ncco4)cc3)n2)C1` [Example E-118, (R)-5-((1-acryloylpyrrolidin-3-yl)(methyl)amino)-3-(4-(oxazol-2-yl)phenylamino)pyrazine-2-carboxamide], the pIC50 on BTK-WT was not below 8.00; on ITK it was not below 8.00; on EGFR it was 7.00 to 8.00; at TEC it was not below 8.00.

Take `C=CC(=O)N1CC[C@@H](N(C)c2cnc(C(N)=O)c(Nc3cnn(C)c3)n2)C1` [Example E-119, (R)-5-((1-acryloylpyrrolidin-3-yl)(methyl)amino)-3-(1-methyl-1H-pyrazol-4-ylamino)pyrazine-2-carboxamide]: the negative-log IC50 (pIC50) on BTK-WT is not below 8.00; at ITK, not below 8.00; against EGFR, 7.00 to 8.00; against TEC it was not below 8.00.

Regarding `C=CC(=O)N[C@@H]1CCCN(c2cnc(C(N)=O)c(Nc3cnn(C)c3)n2)[C@@H]1C` [Example E-98, 5-((2R,3R)-3-acrylamido-2-methylpiperidin-1-yl)-3-(1-methyl-1H-pyrazol-4-ylamino)pyrazine-2-carboxamide], the pIC50 was not below 8.00 at BTK-WT, 6.00 to 7.00 on ITK, 6.00 to 7.00 on EGFR and not below 8.00 at TEC.

For `C=CC(=O)N1CCC[C@@H](Nc2nnc(C(N)=O)c(Nc3ccc(N4CCOCC4=O)cc3)n2)C1` [Example E-62, (R)-3-(1-acryloylpiperidin-3-ylamino)-5-(4-(3-oxomorpholino)phenyl-amino)-1,2,4-triazine-6-carboxamide], the pIC50 at BTK-WT is not below 8.00; on ITK, not below 8.00; at EGFR it was 7.00 to 8.00; at TEC, not below 8.00.

With `C=CC(=O)N1CCC[C@@H](N(C)c2cnc(C(N)=O)c(Nc3cc(C)ns3)n2)C1` [Example E-124, (R)-5-((1-acryloylpiperidin-3-yl)(methyl)amino)-3-(3-methylisothiazol-5-ylamino)pyrazine-2-carboxamide], the negative logarithm of the IC50 (pIC50) on BTK-WT was not below 8.00; against ITK it was not below 8.00; against EGFR, 7.00 to 8.00; at TEC it was not below 8.00.

Turning to `C=CC(=O)N1CC[C@@H](N(C)c2cnc(C(N)=O)c(Nc3ccc(-n4nccn4)cc3)n2)C1` [Example E-116, (R)-3-(4-(2H-1,2,3-triazol-2-yl)phenylamino)-5-((1-acryloylpyrrolidin-3-yl)(methyl)amino) pyrazine-2-carboxamide], the pIC50 at BTK-WT is not below 8.00; on ITK it was not below 8.00; at EGFR, 7.00 to 8.00; at TEC, not below 8.00.

Turning to `C=CC(=O)N1CC[C@@H](N(C)c2cnc(C(N)=O)c(Nc3ccc(-c4ncccn4)cc3)n2)C1` [Example E-117, (R)-5-((1-acryloylpyrrolidin-3-yl)(methyl)amino)-3-(4-(pyrimidin-2-yl)phenylamino)pyrazine-2-carboxamide], the pIC50 on BTK-WT is not below 8.00; on ITK, not below 8.00; on EGFR, 7.00 to 8.00; on TEC, not below 8.00.

For the molecule `C=CC(=O)N1CC[C@@H](N(C)c2cnc(C(N)=O)c(Nc3ccc(C4CCN(C)CC4)cc3)n2)C1` [Example E-115, (R)-5-((1-acryloylpyrrolidin-3-yl)(methyl)amino)-3-(4-(1-methylpiperidin-4-yl)phenylamino)pyrazine-2-carboxamide], the pIC50 at BTK-WT, at ITK, against EGFR and at TEC was not below 8.00 each time.

As for `C=CC(=O)N1CCC[C@@H](Nc2nnc(C(N)=O)c(Nc3ccc(-c4nccs4)cc3)n2)C1` [Example E-63, (R)-3-(1-acryloylpiperidin-3-ylamino)-5-(4-(thiazol-2-yl)phenylamino)-1,2,4-triazine-6-carboxamide], the negative-log IC50 (pIC50) at BTK-WT was not below 8.00; against ITK, 7.00 to 8.00; against EGFR it was not below 8.00; against TEC it was not below 8.00.

On to `C=CC(=O)N1CCC[C@@H](Nc2nnc(C(N)=O)c(Nc3ccc(C4(C#N)CCCC4)cc3)n2)C1` [Example E-46, (R)-3-(1-acryloylpiperidin-3-ylamino)-5-(4-(1-cyanocyclopentyl)phenylamino)-1,2,4-triazine-6-carboxamide], for which the negative logarithm of the IC50 (pIC50) on BTK-WT, at ITK, against EGFR and against TEC was not below 8.00 in each case.

For the molecule `C=CC(=O)N1CCC[C@@H](Nc2nnc(C(N)=O)c(Nc3ccc(S(C)(=O)=O)cc3)n2)C1` [Example E-47, (R)-3-(1-acryloylpiperidin-3-ylamino)-5-(4-(methylsulfonyl)phenyl-amino)-1,2,4-triazine-6-carboxamide], the pIC50 at BTK-WT, against ITK, at EGFR and against TEC was not below 8.00 each time.

Regarding `C=CC(=O)N1CCC[C@@H](Nc2nnc(C(N)=O)c(Nc3ccc(C#N)cc3)n2)C1` [Example E-79, (R)-3-(1-acryloylpiperidin-3-ylamino)-5-(4-cyanophenylamino)-1,2,4-triazine-6-carboxamide], the pIC50 on BTK-WT was not below 8.00; against ITK, 7.00 to 8.00; on TEC, not below 8.00.

For the molecule `C=CC(=O)N1CCC[C@@H](Nc2nnc(C(N)=O)c(Nc3ccc(C)cc3)n2)C1` [Example E-43, (R)-3-(1-acryloylpiperidin-3-ylamino)-5-(p-tolylamino)-1,2,4-triazine-6-carboxamide], the pIC50 is not below 8.00 on BTK-WT, 7.00 to 8.00 at ITK and not below 8.00 on TEC.

With `C=CC(=O)N1CCC[C@@H](Nc2nnc(C(N)=O)c(Nc3cccc(C(=O)NCc4ccccc4)c3)n2)C1` [Example E-86, (R)-3-(1-acryloylpiperidin-3-ylamino)-5-(3-(benzyl-carbamoyl)phenyl-amino)-1,2,4-triazine-6-carboxamide], the pIC50 at BTK-WT was not below 8.00; at ITK, 7.00 to 8.00; against TEC it was not below 8.00.

For the molecule `C=CC(=O)N1CCC[C@@H](Nc2nnc(C(N)=O)c(Nc3cccc(C#N)c3)n2)C1` [Example E-77, (R)-3-(1-acryloylpiperidin-3-ylamino)-5-(3-cyanophenylamino)-1,2,4-triazine-6-carboxamide], the results for the pIC50 on BTK-WT, at ITK and at TEC were not below 8.00, 7.00 to 8.00 and not below 8.00, respectively.

Take `C=CC(=O)N1CCC[C@@H](Nc2nnc(C(N)=O)c(Nc3cc(F)cc(Cl)c3)n2)C1` [Example E-76, (R)-3-(1-acryloylpiperidin-3-ylamino)-5-(3-chloro-5-fluorophenylamino)-1,2,4-triazine-6-carboxamide]: the pIC50 is not below 8.00 on BTK-WT, 7.00 to 8.00 against ITK and not below 8.00 at TEC.

As to `C=CC(=O)N1CCC[C@@H](Nc2nnc(C(N)=O)c(Nc3cccc(C(=O)N4CCOCC4)c3)n2)C1` [Example E-85, (R)-3-(1-acryloylpiperidin-3-ylamino)-5-(3-(morpholine-4-carbonyl)phenylamino)-1,2,4-triazine-6-carboxamide], the figures for the pIC50 on BTK-WT, against ITK and at TEC were not below 8.00, 7.00 to 8.00 and not below 8.00, respectively.

`C=CC(=O)N1CCC[C@@H](Nc2nnc(C(N)=O)c(Nc3ccc(C4CCN(C5CCCC5)CC4)cc3)n2)C1` [Example E-48, (R)-3-(1-acryloylpiperidin-3-ylamino)-5-(4-(1-cyclopentylpiperidin-4-yl)phenylamino)-1,2,4-triazine-6-carboxamide]: the pIC50 at BTK-WT, against ITK and against TEC was not below 8.00 throughout.

Consider `C=CC(=O)N1CCC[C@@H](Nc2nnc(C(N)=O)c(Nc3cccc(Cl)c3)n2)C1` [Example E-75, (R)-3-(1-acryloylpiperidin-3-ylamino)-5-(3-chlorophenylamino)-1,2,4-triazine-6-carboxamide], for which the negative logarithm of the IC50 (pIC50) on BTK-WT was not below 8.00; at ITK, 7.00 to 8.00; against TEC it was not below 8.00.
